target: CBP recombinant proteins (Homo sapiens (Human), UniProt Q92793); test: Competitive HTRF assay for affinity to CBP recombinant protein; type: binding; details: His-tagged CBP 5 nM, biotin-labeled ligand 50 nM, 1% DMSO
Description: The affinity of the compounds synthesized in the present patert to the CBP recombinant proteins was determined by competitive HTRF method. His-tagged cyclic adenosine monophosphate response element binding protein (CREB-binding protein, CBP) was expressed in Escherichia coli system and further purified. CBP biotinylated ligands were all self-made. The BL21 star (DE3) competert cells transfected with His-tagged CBP protein genes at N-terminal were cultured at 37° C. for 16 h until the OD value was between 0.6 and 0.8, induced by 0.5 mM of IPTG and cultured overnight. The supernatant of cell lysate was purified by a Ni-ion affinity column and a Superdex75 molecular sieve column sequentially. The purity of resulting CBP proteins was 95%. The fluorescent donor reagent MAb Anti 6HIS—Eu cryptate Gold (Cisbio #61HI2KLA), the receptor reagent Streptavidin-XL665 (#610SAXLA) and the detection buffer (#62SDBRDD) required for HTRF were obtained from CISBIO BIOASSAYS (Codolet, France). Tris(2-carboxyethyl)phosphine hydrochloride (TCEP), sodium chloride, adenosine triphosphate (ATP), Tween-20, dimethylsulfoxide (DMSO), bovine serum albumin (BSA) and HEPES buffer were obtained from SIGMA at the highest level commercially available.
The general procedure of the competitive HTRF assay for the affinity to CBP recombinant proteins is as follows: 0.05% Tween-20 and 1 mM of TCEP were added immediately before the assay, and the assay was performed in a buffer consisting of 0.1 mg/ml BSA, 50 mM of HEPES and 5 mM of NaCl of pH 7.5. 2.5 μL of compound solution in a determination buffer with 4% DMSO and 5 μL of CBP solution in a determination buffer were added to a white low-volume 384-well microtiter plate, incubated at room temperature for 20 min, and then incubated at room temperature for 40 min by adding 2.5 μL of biotin-labeled ligand solution to the determination buffer. The final concentrations of CBP, biotin-labeled ligand and DMSO were 5 nM, 50 nM and 1%, respectively. Then, 5 μL of MAb Anti 6HIS—Eu cryptate Gold and […] of Streptavidin-XL665 in detection buffers from the manufacturer were added to the mixture, and the mixture was incubated for another 60 min. The final concentration of Streptavidin-XL665 was 12.5 nM, and MAb Anti 6HIS—Eu cryptate Gold was diluted according to the final concentration provided by the supplier. The multimode reader Spark from TECAN (Mannedorf, Switzerland) was used to read the plate to detect the homogeneous time-resolved fluorescence intensity of two groups, in which the excitation wavelength was 320 nm and the emission wavelengths were 665 nm and 620 nm. The IC50 value of the inhibitor was obtained by fitting fluorescence intensity ratios at 665 nm/620 nm with respect to the inhibitor concentration in an S-shaped dose-response curve by using Prism 7 (La Jolla, 15 CA).

Sequence of CBP recombinant proteins (Q92793 whole entry): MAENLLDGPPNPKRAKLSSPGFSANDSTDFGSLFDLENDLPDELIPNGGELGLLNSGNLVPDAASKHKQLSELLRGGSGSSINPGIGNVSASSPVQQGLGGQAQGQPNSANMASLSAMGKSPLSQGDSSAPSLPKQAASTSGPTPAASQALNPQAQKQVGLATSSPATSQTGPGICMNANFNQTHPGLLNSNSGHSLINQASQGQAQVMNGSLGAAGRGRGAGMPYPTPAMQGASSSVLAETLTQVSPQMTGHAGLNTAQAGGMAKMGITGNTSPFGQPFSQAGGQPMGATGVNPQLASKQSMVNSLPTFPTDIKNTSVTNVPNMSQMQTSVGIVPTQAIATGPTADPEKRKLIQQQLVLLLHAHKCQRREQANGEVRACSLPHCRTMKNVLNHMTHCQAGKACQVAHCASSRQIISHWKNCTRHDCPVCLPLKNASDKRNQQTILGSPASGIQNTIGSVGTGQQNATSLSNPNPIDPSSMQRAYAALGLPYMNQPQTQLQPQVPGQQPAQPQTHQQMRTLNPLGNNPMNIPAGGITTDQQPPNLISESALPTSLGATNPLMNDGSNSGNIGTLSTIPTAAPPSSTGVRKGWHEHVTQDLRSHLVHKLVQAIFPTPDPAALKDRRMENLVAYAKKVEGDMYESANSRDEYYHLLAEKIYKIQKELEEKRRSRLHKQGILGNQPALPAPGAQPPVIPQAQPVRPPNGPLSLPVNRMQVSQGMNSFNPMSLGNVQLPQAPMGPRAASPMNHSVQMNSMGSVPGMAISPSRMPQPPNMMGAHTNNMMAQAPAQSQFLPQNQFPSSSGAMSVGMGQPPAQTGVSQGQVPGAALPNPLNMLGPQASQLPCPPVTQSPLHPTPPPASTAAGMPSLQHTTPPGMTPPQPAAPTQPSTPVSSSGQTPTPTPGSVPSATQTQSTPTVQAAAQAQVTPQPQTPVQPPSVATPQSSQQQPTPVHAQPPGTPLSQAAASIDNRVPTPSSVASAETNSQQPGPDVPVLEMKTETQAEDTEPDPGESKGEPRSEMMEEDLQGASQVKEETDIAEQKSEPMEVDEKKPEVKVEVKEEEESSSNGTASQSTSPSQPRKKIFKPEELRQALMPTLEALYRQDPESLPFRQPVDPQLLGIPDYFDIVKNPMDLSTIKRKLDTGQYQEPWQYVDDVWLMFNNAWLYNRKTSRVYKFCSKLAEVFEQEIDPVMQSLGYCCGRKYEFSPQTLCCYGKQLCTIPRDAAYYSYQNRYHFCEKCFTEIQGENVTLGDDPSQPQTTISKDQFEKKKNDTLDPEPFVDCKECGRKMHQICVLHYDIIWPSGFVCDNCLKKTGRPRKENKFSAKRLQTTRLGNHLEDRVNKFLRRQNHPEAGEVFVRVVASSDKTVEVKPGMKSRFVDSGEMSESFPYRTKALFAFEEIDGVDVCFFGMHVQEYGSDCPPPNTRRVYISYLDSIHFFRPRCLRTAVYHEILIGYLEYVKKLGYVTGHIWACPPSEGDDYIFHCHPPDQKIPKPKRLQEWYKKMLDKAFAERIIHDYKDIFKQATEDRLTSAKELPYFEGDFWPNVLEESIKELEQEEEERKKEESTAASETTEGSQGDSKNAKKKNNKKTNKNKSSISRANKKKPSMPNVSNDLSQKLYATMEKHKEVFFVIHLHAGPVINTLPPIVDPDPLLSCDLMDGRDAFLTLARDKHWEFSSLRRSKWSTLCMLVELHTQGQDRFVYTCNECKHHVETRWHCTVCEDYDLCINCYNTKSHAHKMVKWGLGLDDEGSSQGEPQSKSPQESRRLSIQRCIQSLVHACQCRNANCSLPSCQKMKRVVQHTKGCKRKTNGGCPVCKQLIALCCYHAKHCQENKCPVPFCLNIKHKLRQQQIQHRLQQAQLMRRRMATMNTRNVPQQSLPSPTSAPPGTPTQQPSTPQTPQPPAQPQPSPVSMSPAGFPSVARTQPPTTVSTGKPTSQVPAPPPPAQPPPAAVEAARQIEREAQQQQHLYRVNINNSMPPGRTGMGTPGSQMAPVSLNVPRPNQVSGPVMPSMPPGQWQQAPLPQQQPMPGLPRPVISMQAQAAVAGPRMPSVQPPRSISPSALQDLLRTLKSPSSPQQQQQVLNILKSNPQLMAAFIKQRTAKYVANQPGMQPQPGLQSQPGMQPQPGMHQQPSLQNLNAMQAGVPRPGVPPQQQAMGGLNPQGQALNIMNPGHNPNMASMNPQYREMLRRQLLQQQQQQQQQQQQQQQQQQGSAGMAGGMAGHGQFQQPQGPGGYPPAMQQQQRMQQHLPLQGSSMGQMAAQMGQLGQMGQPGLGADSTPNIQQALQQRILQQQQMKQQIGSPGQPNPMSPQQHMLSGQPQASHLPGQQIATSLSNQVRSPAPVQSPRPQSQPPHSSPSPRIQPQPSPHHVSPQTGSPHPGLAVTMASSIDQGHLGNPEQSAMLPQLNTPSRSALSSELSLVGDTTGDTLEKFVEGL

IC50	SMILES
11 nM	CNC(=O)c1cc2cc(N3CCCS3(=O)=O)ccc2c(N2CCCc3cc(-c4cnn(C)c4)c(C(F)F)cc32)n1 [Example 26, 1-(7-(difluoromethyl)-6-(1-methyl-1H-pyrazol-4-yl)-3,4-dihydroquinolin-1(2H)-yl)-6-(1,1-dioxyisothiazolidin-2-yl)-N-methyliso-quinoline-3-carboxamide]
3.3 nM	CNC(=O)c1cc2cc(N3CCN(C)CC3=O)ccc2c(N2CCCc3cc(-c4cnn(C)c4)c(C(F)F)cc32)n1 [Example 27, 1-[7-difluoromethyl-6-(1-methyl-1H-pyrazol-4-yl)-3,4-dihydro-2H-quinolin-1-yl]-6-(4-methyl-2-oxo-piperazin-1-yl)-isoquinoline-3-carboxylic acid methylamide]
5.3 nM	CNC(=O)c1cc2cc(N3CCOCC3=O)ccc2c(N2CCCc3cc(-c4cnn(C)c4)c(C(F)F)cc32)n1 [Example 28, 1-[7-difluoromethyl-6-(1-methyl-1H-pyrazol-4-yl)-3,4-dihydro-2H-quinolin-1-yl]-6-(3-oxo-morpholin-4-yl)-isoquinoline-3-carboxylic acid methylamide]
16 nM	CNC(=O)c1cc2cc(C3CCCO3)ccc2c(N2CCCc3cc(-c4cnn(C)c4)c(C(F)F)cc32)n1 (stereo not shown) [Example 29, 1-[7-difluoromethyl-6-(1-methyl-1H-pyrazol-4-yl)-3,4-dihydro-2H-quinolin-1-yl]-6-(tetrahydrofuran-2-yl)-isoquinoline-3-carboxylic acid methylamide]
22 nM	CNC(=O)c1cc2ccccc2c(N2CCCc3cc(-c4cncnc4)c(C(F)F)cc32)n1 [Example 30, 1-(7-difluoromethyl-6-pyrimidine-5-yl-3,4-dihydro-2H-quinolin-1-yl)-isoquinoline-3-carboxylic acid methylamide]
49 nM	CNC(=O)c1cc2ccccc2c(N2CCCc3cc(C4=CCOCC4)c(C(F)F)cc32)n1 [Example 31, 1-[7-difluoro-methyl-6-(3,6-dihydro-2H-pyran-4-yl)-3,4-dihydro-2H-quino-lin-1-yl]-iso-quinoline-3-carboxylic acid methylamide]
36 nM	CCn1cc(-c2cc3c(cc2C(F)F)N(c2nc(C(=O)NC)cc4ccccc24)CCC3)cn1 [Example 32, 1-[7-difluoro-methyl-6-(1-ethyl-1H-pyrazol-4-yl)-3,4-dihydro-2H-quinolin-1-yl]-isoquino-line-3-carboxylic acid methylamide]
44 nM	CNC(=O)c1cc2ccccc2c(N2CCCc3cc(-c4cnn(C5CC5)c4)c(C(F)F)cc32)n1 [Example 33, 1-[6-(1-cyclo-propyl-1H-pyrazol-4-yl)-7-difluoromethyl-3,4-dihydro-2H-quino-lin-1-yl]-iso-quinoline-3-carboxylic acid methylamide]
32 nM	CNC(=O)c1cc2ccccc2c(N2CCCc3cc(-c4ccn(C)n4)c(C(F)F)cc32)n1 [Example 34, 1-[7-difluoro-methyl-6-(1-methyl-1H-pyrazol-3-yl)-3,4-dihydro-2H-quinolin-1-yl]-isoquinoline-3-carboxylic acid methylamide]
16 nM	CNC(=O)c1cc2ccccc2c(N2CCCc3cc(-c4cnn(CCO)c4)c(C(F)F)cc32)n1 [Example 35]
16 nM	CNC(=O)c1cc2cccnc2c(N2CCCc3cc(-c4cncnc4)c(C(F)F)cc32)n1 [Example 37, 8-(7-difluoro-methyl-6-pyrimidine-5-yl-3,4-dihydro-2H-quinolin-1-yl)-[1,7] naphthyridine-6-carboxylic acid methylamide]
14 nM	CNC(=O)c1cc2cccnc2c(N2CCCc3cc(-c4cnn(CS(C)(=O)=O)c4)c(C(F)F)cc32)n1 [Example 38, 8-[7-difluoro-methyl-6-(1-methanesulfonyl-methyl-1H-pyrazol-4-yl)-3,4-dihydro-2H-quinolin-1-yl]-[1,7] naphthyridine-6-carboxylic acid methylamide]
13 nM	CNC(=O)c1cc2cccnc2c(N2CCCc3cc(-c4ccnnc4)c(C(F)F)cc32)n1 [Example 39, 8-(7-difluoro-methyl-6-pyrida-zine-4-yl-3,4-dihydro-2H-quinolin-1-yl)-[1,7] naphthyridine-6-carboxylic acid methylamide]
62 nM	CNC(=O)c1cc2ccccc2c(N2CCC(NC)c3cc(-c4cnn(C)c4)ccc32)n1 (stereo not shown) [Example 40, 1-[4-methylamino-6-(1-methyl-1H-pyrazol-4-yl)-3,4-dihydro-2H-quinolin-1-yl]-isoquinoline-3-carboxylic acid methylamide]
57 nM	CNC(=O)c1cc2ccccc2c(N2CCC(O)c3cc(-c4cnn(C)c4)ccc32)n1 (stereo not shown) [Example 41, 1-[4-hydroxy-6-(1-methyl-1H-pyrazol-4-yl)-3,4-dihydro-2H-quinolin-1-yl]isoquinoline-3-carboxylic acid methylamide]
6.7 nM	CNC(=O)c1cc2cccnc2c(N2CCCc3cc(C4=CCN(C(C)=O)CC4)c(C(F)F)cc32)n1 [Example 43, 8-[6-(1-acetyl-1,2,3,6-tetrahydropyridin-4-yl)-7-difluoromethyl-3,4-dihydro-2H-quinolin-1-yl]-[1,7]naphthyridine-6-carboxylic acid methylamide]
8.5 nM	CNC(=O)c1cc2cccnc2c(N2CCCc3cc(C4=CCN(S(C)(=O)=O)CC4)c(C(F)F)cc32)n1 [Example 45, 8-[7-difluoromethyl-6-(1-methanesulfonyl-1,2,3,6-tetrahydropyridin-4-yl)-3,4-dihydro-2H-quinolin-1-yl]-[1,7]naphthyridine-6-carboxylic acid methylamide]
5.4 nM	CNC(=O)c1cc2cccnc2c(N2CCCc3cc(C4CCN(C(C)=O)CC4)c(C(F)F)cc32)n1 [Example 46, 8-[6-(1-acetylpiperidin-4-yl)-7-difluoromethyl-3,4-dihydro-2H-quinolin-1-yl]-[1,7]naphthyridine-6-carboxylic acid methylamide]
31 nM	CNC(=O)c1cc2ncccc2c(N2CCCc3cc(C4CCN(C(C)=O)CC4)c(C(F)F)cc32)n1 [Example 47, 5-[6-(1-acetylpiperidin-4-yl)-7-difluoro-methyl-3,4-dihydro-2H-quinolin-1-yl]-[1,6] naphthyridine-7-carboxylic acid methylamide]
13 nM	CNC(=O)c1cc2cnccc2c(N2CCCc3cc(C4CCN(C(C)=O)CC4)c(C(F)F)cc32)n1 [Example 48, 1-[6-(1-acetylpiperidin-4-yl)-7-difluoro-methyl-3,4-dihydro-2H-quinolin-1-yl]-[2,6] naphthyridine-3-carboxylic acid methylamide]
12 nM	CNC(=O)c1cc2ccncc2c(N2CCCc3cc(C4CCN(C(C)=O)CC4)c(C(F)F)cc32)n1 [Example 49, 1-[6-(1-acetylpiperidin-4-yl)-7-difluoro-methyl-3,4-dihydro-2H-quinolin-1-yl]-[2,7] naphthyridine-3-carboxylic acid methylamide]
54 nM	CNC(=O)c1cc2cc(Cl)cnc2c(N2CCCc3cc(C4CCN(C(C)=O)CC4)c(C(F)F)cc32)n1 [Example 50, 8-[6-(1-acetylpiperidin-4-yl)-7-difluoro-methyl-3,4-dihydro-2H-quinolin-1-yl]-3-chloro-[1,7] naphthyridine-6-carboxylic acid methylamide]
22 nM	CNC(=O)c1cc2cc(OC)cnc2c(N2CCCc3cc(C4CCN(C(C)=O)CC4)c(C(F)F)cc32)n1 [Example 51, 8-[6-(1-acetylpiperidin-4-yl)-7-difluoro-methyl-3,4-dihydro-2H-quinolin-1-yl]-3-methoxy-[1,7] naphthyridine-6-carboxylic acid methylamide]

SMILES	IC50
CNC(=O)c1cc2ccccc2c(N2CCCc3cc(C4=CCNCC4)c(C(F)F)cc32)n1 [Example 42]	50 nM
CNC(=O)c1cc2cccnc2c(N2CCCc3cc(C4=CCN(C)CC4)c(C(F)F)cc32)n1 [Example 44, 8-[7-difluoromethyl-6-(1-methyl-1,2,3,6-tetrahydropyridin-4-yl)-3,4-dihydro-2H-quinolin-1-yl]-[1,7]naphthyridine-6-carboxylic acid methylamide]	64 nM
